Patent publication US5210193A, “Piperazine derivatives” (American Cyanamid Company, priority 1990, dated 1993)
≈ marks a conversion by molar mass, not a printed value.

Assays:
Assay in all cases: in vitro antibacterial MIC, agar plate dilution
Format in all cases: cell-based
[1] = system: Morganella morganii VGH 84-11; details: VGH8411, 18 hours, 35° C., read-out: MIC
How it was run: (§1)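 Agar plate dilution on Mueller-Hinton agar, inoculum approximately 10^4 CFU per organism applied with a Steers replicator. MIC (mcg/ml) is the lowest compound concentration inhibiting visible growth after 18 hours at 35° C.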

[2] = system: Staphylococcus aureus ATTC 29213; details: Staphylococcus aureus, ATTC29213, 18 h, 35° C., read-out: MIC
How it was run: as §1

[3] = system: Klebsiella oxytoca MOR 84-28; details: MOR8428, 18 hours, 35° C.
How it was run: as §1

[4] = system: Escherichia coli PRNT 311; details: PRNT311, 18 hours, 35° C., read-out: MIC
How it was run: as §1

[5] = system: Escherichia coli CMC 84-11; details: Escherichia coli, CMC8411, 18 h, 35° C., read-out: MIC
How it was run: as §1

[6] = system: Streptococcus faecalis ATTC 29212; details: Enterococcus faecalis, ATTC29212, 18 hours, 35° C., read-out: MIC
How it was run: as §1

[7] = system: Enterobacter cloacae K 84-10; details: Enterobacter cloacae, K8410, 18 h, 35° C., read-out: MIC
How it was run: as §1

[8] = system: Staphylococcus aureus CMC 83-127; details: Staphylococcus aureus, CMC83127, 18 h, 35° C., read-out: MIC
How it was run: as §1

[9] = system: Pseudomonas aeruginosa LL-1244; details: Pseudomonas aeruginosa, LL1244, 18 h, 35° C., read-out: MIC
How it was run: as §1

[10] = system: Staphylococcus epidermidis VGH 84-40; details: VGH8440, 18 hours, 35° C., read-out: MIC
How it was run: as §1

[11] = system: Staphylococcus aureus CMC 83-128; details: CMC83128, 18 hours, 35° C., read-out: MIC
How it was run: as §1

[12] = system: Escherichia coli CMC 84-16; details: Escherichia coli, CMC8416, 18 h, 35° C., read-out: MIC
How it was run: as §1

[13] = system: Pseudomonas aeruginosa VGH 84-4; details: Pseudomonas aeruginosa, VGH844, 18 h, 35° C., read-out: MIC
How it was run: as §1

[14] = system: Staphylococcus aureus Smith; details: Staphylococcus aureus, 18 h, 35° C., read-out: MIC
How it was run: as §1

[15] = system: Serratia marcescens K 84-18; details: Serratia marcescens, K8418, 18 h, 35° C., read-out: MIC
How it was run: as §1

[16] = system: Enterobacter cloacae VGH 84-37; details: Enterobacter cloacae, VGH8437, 18 h, 35° C., read-out: MIC
How it was run: as §1

Klebsiella pneumoniae AD = details: Klebsiella pneumoniae, 18 h, 35° C., read-out: MIC
How it was run: as §1

[17] = system: Acinetobacter calcoaceticus MOR 84-43; details: MOR8443, 18 hours, 35° C., read-out: MIC
How it was run: as §1

[18] = system: Staphylococcus epidermidis IO 83-58; details: IO8358, 18 hours, 35° C., read-out: MIC
How it was run: as §1

[19] = system: Morganella morganii CMC 84-37; details: Morganella morganii, CMC8437, 18 h, 35° C., read-out: MIC
How it was run: as §1

[20] = system: Staphylococcus aureus VGH 84-46; details: Staphylococcus aureus, VGH8446, 18 h, 35° C., read-out: MIC
How it was run: as §1

[21] = system: Staphylococcus Spp saprophiticus VGH 84-50; details: 18 hours, 35° C., read-out: MIC
How it was run: as §1

[22] = system: Staphylococcus epidermidis CMC 83-135; details: CMC83135, 18 hours, 35° C., read-out: MIC
How it was run: as §1

[23] = system: Escherichia coli ATCC 25922; details: Escherichia coli, ATCC25922, 18 h, 35° C., read-out: MIC
How it was run: as §1

[24] = system: Staphylococcus aureus VGH 84-45; details: Staphylococcus aureus, VGH8445, 18 h, 35° C., read-out: MIC
How it was run: as §1

[25] = system: Serratia marcescens F 0-35; details: Serratia marcescens, F035, 18 h, 35° C., read-out: MIC
How it was run: as §1

[26] = system: Enterobacter aerogenes VGH 84-36; details: Klebsiella aerogenes, VGH8436, 18 hours, 35° C., read-out: MIC
How it was run: as §1

Escherichia coli NAR 311 = details: NAR311, 18 hours, 35° C., read-out: MIC
How it was run: as §1

[27] = system: Proteus rettgeri CMC 84-41; details: Providencia rettgeri, CMC8441, 18 h, 35° C., read-out: MIC
How it was run: as §1

[28] = system: Klebsiella pneumoniae MOR 84-4; details: Klebsiella pneumoniae, MOR844, 18 h, 35° C., read-out: MIC
How it was run: as §1

[29] = system: Streptococcus faecalis VGH 84-65; details: Enterococcus faecalis, VGH8465, 18 h, 35° C., read-out: MIC
How it was run: as §1

[30] = system: Staphylococcus aureus ATCC 25913; details: ATCC25913, 18 hours, 35° C.
How it was run: as §1

Row | Compound | MIC [1] [µg/mL] | MIC [2] [µg/mL] | MIC [3] [µg/mL] | MIC [4] [µg/mL] | MIC [5] [µg/mL] | MIC [6] [µg/mL] | MIC [7] [µg/mL] | MIC [8] [µg/mL] | MIC [9] [µg/mL] | MIC [10] [µg/mL] | MIC [11] [µg/mL] | MIC [12] [µg/mL] | MIC [13] [µg/mL] | MIC [14] [µg/mL] | MIC [15] [µg/mL] | MIC [16] [µg/mL] | MIC (Klebsiella pneumoniae AD) [µg/mL] | MIC [17] [µg/mL] | MIC [18] [µg/mL] | MIC [19] [µg/mL] | further results
1 | CCn1cc(C(=O)O)c(=O)c2cc(F)c(N3CCNC(c4ccc(C)s4)C3)cc21 (stereo not shown) [Example 37, 1-Ethyl-6-fluoro-1,4-dihydro-7-[3-(5-methyl-2-thienyl)-1-piperazinyl]-4-oxo-3-quinolinecarboxylic acid] | 1 (≈ 2.41 µM) | 0.5 (≈ 1.2 µM) | 1 (≈ 2.41 µM) | 2 (≈ 4.81 µM) | 1 (≈ 2.41 µM) | 4 (≈ 9.63 µM) | 1 (≈ 2.41 µM) | 0.12 (≈ 0.289 µM) | 64 (≈ 154 µM) | 0.25 (≈ 0.602 µM) | 0.25 (≈ 0.602 µM) | 0.5 (≈ 1.2 µM) | 16 (≈ 38.5 µM) | 0.5 (≈ 1.2 µM) | 2 (≈ 4.81 µM) | 1 (≈ 2.41 µM) | 2 (≈ 4.81 µM) | 8 (≈ 19.3 µM) | 0.5 (≈ 1.2 µM) | 0.5 (≈ 1.2 µM) | MIC [20]: 0.5 µg/mL (≈ 1.2 µM); MIC [21]: 2 µg/mL (≈ 4.81 µM); MIC [22]: 0.5 µg/mL (≈ 1.2 µM); MIC [23]: 1 µg/mL (≈ 2.41 µM); MIC [24]: 0.12 µg/mL (≈ 0.289 µM); MIC [25]: 2 µg/mL (≈ 4.81 µM); MIC [26]: 1 µg/mL (≈ 2.41 µM); MIC (Escherichia coli NAR 311): 16 µg/mL (≈ 38.5 µM); MIC [27]: 1 µg/mL (≈ 2.41 µM); MIC [28]: 2 µg/mL (≈ 4.81 µM); MIC [29]: 4 µg/mL (≈ 9.63 µM)
2 | CCn1cc(C(=O)O)c(=O)c2cc(F)c(N3CCNC(c4ccsc4)C3)cc21 (stereo not shown) [Example 30] | 0.12 (≈ 0.299 µM) | 0.5 (≈ 1.25 µM) | 0.5 (≈ 1.25 µM) | 0.5 (≈ 1.25 µM) | 0.12 (≈ 0.299 µM) | 4 (≈ 9.96 µM) | 0.5 (≈ 1.25 µM) | 0.12 (≈ 0.299 µM) | 32 (≈ 79.7 µM) | 0.25 (≈ 0.623 µM) | 0.5 (≈ 1.25 µM) | 0.25 (≈ 0.623 µM) | 4 (≈ 9.96 µM) | 0.12 (≈ 0.299 µM) | 0.5 (≈ 1.25 µM) | 0.12 (≈ 0.299 µM) | 0.12 (≈ 0.299 µM) | 4 (≈ 9.96 µM) | 0.5 (≈ 1.25 µM) | 0.25 (≈ 0.623 µM) | MIC [30]: 0.25 µg/mL (≈ 0.623 µM); MIC [20]: 0.25 µg/mL (≈ 0.623 µM); MIC [21]: 2 µg/mL (≈ 4.98 µM); MIC [22]: 0.25 µg/mL (≈ 0.623 µM); MIC [23]: 0.12 µg/mL (≈ 0.299 µM); MIC [24]: 0.25 µg/mL (≈ 0.623 µM); MIC [25]: 1 µg/mL (≈ 2.49 µM); MIC [26]: 0.5 µg/mL (≈ 1.25 µM); MIC (Escherichia coli NAR 311): 4 µg/mL (≈ 9.96 µM); MIC [27]: 0.25 µg/mL (≈ 0.623 µM); MIC [28]: 0.25 µg/mL (≈ 0.623 µM); MIC [29]: 4 µg/mL (≈ 9.96 µM)
3 | CCn1cc(C(=O)O)c(=O)c2c(F)c(F)c(N3CCN(C)CC3)c(F)c21 [Example 85, 1-Ethyl-5,6,8-trifluoro-1,4-dihydro-7-(4-methyl-1-piperazinyl) -4-oxo-3-quinolinecarboxylic acid] | 0.12 (≈ 0.325 µM) | 2 (≈ 5.42 µM) | 1 (≈ 2.71 µM) | 0.12 (≈ 0.325 µM) | 0.12 (≈ 0.325 µM) | 8 (≈ 21.7 µM) | 0.12 (≈ 0.325 µM) | 0.5 (≈ 1.35 µM) | 16 (≈ 43.3 µM) | 1 (≈ 2.71 µM) | 2 (≈ 5.42 µM) | 0.06 (≈ 0.162 µM) | 4 (≈ 10.8 µM) | 1 (≈ 2.71 µM) | 0.5 (≈ 1.35 µM) | 0.12 (≈ 0.325 µM) | 0.25 (≈ 0.677 µM) | 1 (≈ 2.71 µM) | 1 (≈ 2.71 µM) | 0.12 (≈ 0.325 µM) | MIC [20]: 1 µg/mL (≈ 2.71 µM); MIC [21]: 8 µg/mL (≈ 21.7 µM); MIC [22]: 2 µg/mL (≈ 5.42 µM); MIC [23]: 0.12 µg/mL (≈ 0.325 µM); MIC [24]: 1 µg/mL (≈ 2.71 µM); MIC [25]: 0.5 µg/mL (≈ 1.35 µM); MIC [26]: 0.5 µg/mL (≈ 1.35 µM); MIC (Escherichia coli NAR 311): 4 µg/mL (≈ 10.8 µM); MIC [27]: 0.5 µg/mL (≈ 1.35 µM); MIC [28]: 0.5 µg/mL (≈ 1.35 µM); MIC [29]: 16 µg/mL (≈ 43.3 µM)
